Measured values published in paper PMC7806714, “Statins for the prevention of proliferative vitreoretinopathy: cellular responses in cultured cells and clinical statin concentrations in the vitreous” (Scientific Reports, 2021).

Test: Calculated average steady-state plasma (Eq. 1) and expected vitreal concentrations (Eq. 3)
Design: species or system human
Conditions: for Calc. Cv: expected vitreal, Eq. 3; for Css,av: plasma, Eq. 1
Experimental: The concentrations of statins and their metabolites in the vitreous were analysed (see above) and expressed as ng/mL concentrations. These concentrations were compared to published statin concentrations in plasma. […] Maximum concentrations in plasma and the area under the concentration vs time curve values were collected. The expected average statin concentrations in plasma during multiple dose treatment were calculated for the doses that the patients received in our study (Eq. 1):1 Css,av=AUCsingledose/τ where τ is the time interval between doses. The drug concentrations in plasma (C, Cmax, Css, av) include both unbound (Cu) and protein-bound drug. The values for protein binding were obtained from the summary of drug product characteristics for each statin. The free fraction of statin in plasma was calculated based on Eq. (2):2 fu=CuC
The expected drug concentrations in the patients’ vitreous samples were calculated according to Eq. (3)3 Cv=fu×Css,av
Equation (3) assumes that the vitreal drug concentrations equilibrate with the unbound drug concentrations in plasma, because only free drug is expected to cross the blood-ocular barriers.

CC(C)c1nc(N(C)S(C)(=O)=O)nc(-c2ccc(F)cc2)c1/C=C/[C@@H](O)C[C@@H](O)CC(=O)O [Rosuvastatin]
Calc. Cv (10 mg/d, China study [30]): 0.513 ng/mL
Calc. Cv (10 mg/d, Germany study [31]): 0.242 ng/mL
Calc. Cv (20 mg/d, Chinese study [30]): 0.883 ng/mL
Calc. Cv (20 mg/d, UK study [32]): 0.314 ng/mL
Css,av (10 mg/d, China study [30]): 4.27 ng/mL
Css,av (10 mg/d, Germany study [31]): 2.02 ng/mL
Css,av (20 mg/d, Chinese study [30]): 7.36 ng/mL
Css,av (20 mg/d, UK study [32]): 2.62 ng/mL
